Results on 23 compounds are retold here after patent US8053439B2, “Benzophenone derivatives useful for inhibiting formation of microtubule” (Chong Kun Dang Pharmaceutical Corp., priority 2006, dated 2011).

Structures are written as SMILES.

One test relates to HL60 cells. Briefly: Inhibition effect of HL60 cell line growth (MTT, 3 days). Type of test: cell-based. The conditions noted are these: Homo sapiens, HL-60, 72 h, read-out: HL60 Growth Inhibition. The method, then:
1. Inhibition Effect of HL60 Cell Line Growth
A 10% FBS-contained RPMI1640 badge was used for culturing HL60 cells. The test substance was prepared by dissolving in DMSO to a concentration of 10 mg/ml, and continuously diluting with PBS to a final concentration of 100 μg/ml to 0.03 μg/ml. In a 96-well microplate, 180 μl of the badge containing 6.0×10^4 cells/ml of cells and 20 μl of continuously diluted test substance were added. The mixture was cultured at 37° C. with 5% CO2 atmosphere for 3 days. After completion of the cultivation, 50 μl of a solution of 1.25 mg/ml MTT (3-(4,5-dimethylthiazol-2-yl)-2,5-diphenyltetrazolium bromide) dissolved in PBS was added to all wells, and the resulting mixture was reacted at 37° C. for 3 hours. Thus formed formazan crystals were dissolved in 150 μl of DMSO, and an absorbance was measured at 570 nm.
`COc1cc(C(=O)c2ccc(-c3cscn3)cc2-n2cncn2)cc(OC)c1OC` [Compound 562, (4-(thiazol-4-yl)-2-(1H-1,2,4-triazol-1-yl)phenyl)(3,4,5-trimethoxyphenyl)methanone]: the IC50 was 80 nM.
The same measure, in the same setting: under `COc1ccc(-c2nccs2)cc1C(=O)c1cc(OC)c(OC)c(OC)c1` [Compound 583, (2-methoxy-5-(thiazol-2-yl)phenyl)(3,4,5-trimethoxyphenyl)methanone] stands 10 nM.
Turning to `COc1ccc(-c2ncco2)cc1C(=O)c1cc(OC)c(OC)c(OC)c1` [Compound 590, (2-methoxy-5-(oxazol-2-yl)phenyl)(3,4,5-trimethoxyphenyl)methanone], the IC50 came out at 10 nM.

The test is the same for the next values; noted with them: Homo sapiens, HL-60, 72 h; HL60 cells, 3 days culture, MTT, absorbance 570 nm; read-out: HL60 Growth Inhibition.
Consider `COc1cc(C(=O)c2ccc(-c3nc(CO)cs3)cc2-n2cncn2)cc(OC)c1OC` [Compound 554, ((4-(4-hydroxymethyl)thiazol-2-yl)-2-(1H-1,2,4-triazol-1-yl)phenyl)(3,4,5-trimethoxyphenyl)methanone], for which the IC50 was 90 nM.
With `COc1cc(C(=O)c2ccc(-c3csc(NC(C)=O)n3)cc2-n2cncn2)cc(OC)c1OC` [Compound 560, N-(4-(3-(1H-1,2,4-triazol-1-yl)-4-(3,4,5-trimethoxybenzoyl)phenyl)thiazol-2-yl)acetamide], the IC50 is 90 nM.
The same measure, in the same setting: under `COC(=O)Nc1nc(-c2ccc(C(=O)c3cc(OC)c(OC)c(OC)c3)c(-n3cncn3)c2)cs1` [Compound 561, methyl 4-(3-(1H-1,2,4-triazol-1-yl)-4-(3,4,5-trimethoxybenzoyl)phenyl)thiazol-2-yl carbamate] stands 320 nM; under `COc1cc(C(=O)c2ccc(-c3csc(C(C)(C)O)n3)cc2-n2cncn2)cc(OC)c1OC` [Compound 563, (4-(2-(2-hydroxypropan-2-yl)thiazol-4-yl)-2-(1H-1,2,4-triazol-1-yl)phenyl)(3,4,5-trimethoxyphenyl)methanone], 250 nM; under `COc1cc(C(=O)c2ccc(-c3csc(CO)n3)cc2-n2cncn2)cc(OC)c1OC` [Compound 564, (4-(2-(hydroxymethyl)thiazol-4-yl)-2-(1H-1,2,4-triazol-1-yl)phenyl)(3,4,5-trimethoxyphenyl)methanone], 90 nM.
On the same count and under the same terms, under `COc1cc(C(=O)c2cccc(-c3ccsc3)c2)cc(OC)c1OC` [Compound 568, (3-(thiophen-3-yl)phenyl)(3,4,5-trimethoxyphenyl)methanone] stands 360 nM; under `COc1cc(C(=O)c2cccc(-c3csc(N)n3)c2)cc(OC)c1OC` [Compound 570, (3-(2-aminothiazol-4-yl)phenyl)(3,4,5-trimethoxyphenyl)methanone], 120 nM.
As to `COc1cc(C(=O)c2ccc(-c3csc(N)n3)cc2)cc(OC)c1OC` [Compound 571, (4-(2-aminothiazol-4-yl)phenyl)(3,4,5-trimethoxyphenyl)methanone], the IC50 amounted to 110 nM.
In the case of `COc1cc(C(=O)c2cccc(-c3nccs3)c2)cc(OC)c1OC` [Compound 581], the IC50 was 40 nM.
The same measure, in the same setting: under `COc1cc(C(=O)c2cccc(-c3ncco3)c2)cc(OC)c1OC` [Compound 587, (3-(oxazol-2-yl)phenyl)(3,4,5-trimethoxyphenyl)methanone] stands 40 nM.
On to `COc1ccc(-c2ccsc2)cc1C(=O)c1cc(OC)c(OC)c(OC)c1` [Compound 588, (2-methoxy-5-(thiophen-3-yl)phenyl)(3,4,5-trimethoxyphenyl)methanone], for which the IC50 worked out at 120 nM.
As for `COc1cc(C(=O)c2cccc(-c3ccc[nH]3)c2)cc(OC)c1OC` [Compound 591, (3-(1H-pyrrol-2-yl)phenyl)(3,4,5-trimethoxyphenyl)methanone], the IC50 turned out to be 200 nM.
The same measure, in the same setting: under `COc1ccc(-c2cccs2)cc1C(=O)c1cc(OC)c(OC)c(OC)c1` [Compound 594, (2-methoxy-5-(thiophen-2-yl)phenyl)(3,4,5-trimethoxyphenyl)methanone] stands 120 nM; under `COc1ccc(-c2csc(C)n2)cc1C(=O)c1cc(OC)c(OC)c(OC)c1` [Compound 595, (2-methoxy-5-(methylthiazol-4-yl)phenyl)(3,4,5-trimethoxyphenyl)methanone], 120 nM; under `COc1cc(C(=O)c2cc(-c3csc(C)n3)ccc2-n2cncn2)cc(OC)c1OC` [Compound 596, (5-(2-methylthiazol-4-yl)-2-(1H-1,2,4-triazol-1-yl)phenyl)(3,4,5-trimethoxyphenyl)methanone], 230 nM.
On the same count and under the same terms, under `COc1cc(C(=O)c2cc(-c3ccc[nH]3)ccc2N)cc(OC)c1OC` [Compound 597, (2-amino-5-(1H-pyrrol-2-yl)phenyl)(3,4,5-trimethoxyphenyl)methanone] stands 220 nM.
Still for that read-out and setting: under `COc1ccc(-c2ccn[nH]2)cc1C(=O)c1cc(OC)c(OC)c(OC)c1` [Compound 598, (2-methoxy-5-(1H-pyrazol-5-yl)phenyl)(3,4,5-trimethoxyphenyl)methanone] stands 390 nM; under `COc1cc(C(=O)c2ccc(-c3ccc[nH]3)cc2-n2cncn2)cc(OC)c1OC` [Compound 599, (4-(1H-pyrrol-2-yl)-2-(1H-1,2,4-triazol-1-yl)phenyl)(3,4,5-trimethoxyphenyl)methanone], 140 nM; under `COc1cc(C(=O)c2cc(-c3nccs3)ccc2O)cc(OC)c1OC` [Compound 601, (2-hydroxy-5-(thiazol-2-yl)phenyl)(3,4,5-trimethoxyphenyl)methanone], 90 nM.
As to `COc1cc(C(=O)c2ccc(-c3ncco3)cc2-n2cncn2)cc(OC)c1OC` [Compound 602, (4-(oxazol-2-yl)-2-(1H-1,2,4-triazol-1-yl)phenyl)(3,4,5-trimethoxyphenyl)methanone], the IC50 worked out at 170 nM.
